Source: patent US20060149033A1, “IGF antagonist peptides” (GENENTECH, INC., priority 2001, published 2006)
pIC50: −log10 of the molar value. Bridge positions count the residues as written; N and C are the ends. Peptide text beside a SMILES is read from it.

Key:
IGFBP3 = test: Peptide inhibition of phage IGF-1 binding to IGFBP-3; design: species or system human; settings: synthetic peptide preincubated 45 minutes with IGF-1 displaying phage; plates coated with IGF binding protein; read-out: BP3 Comp
Method: (§1) Peptide Inhibition of Phage IGF-1 Binding to IGF Binding Proteins
(§2) For inhibition of IGFBP-1 and IGFBP3, E. coli cells (XL1-Blue, Stratagene) freshly transformed with the phage vector pIGF-g3 displaying human IGF-1 as described in Dubaquie and Lowman, supra, was grown overnight in 5 ml of 2YT medium (Sambrook et al., Molecular Cloning. A Laboratory Handbook (Cold Spring Harbor Laboratory Press, Cold Spring Harbor, N.Y., 1989)). The IGF-1 displaying phage was titered against IGF bp1 and bp3 for a 500-1000× dilution for preincubation with serial dilutions the synthesized peptides and binding protein standards for 45 minutes. Immunosorbant plates were coated with IGF binding proteins and blocked with 0.5% TWEEN®-20 detergent and PBS and washed as above. The samples were added to the plates for 20 minutes, washed and detected as above. The experimental IC50 values are in Table 5.

[1] = test system: human type 1 IGF-1 receptor; test: Cell-based IGF-1 KIRA assay; settings: MCF-7 cells; peptides preincubated 30 min with 2 nm IGF-1; 15-minute stimulation
Method: Cell-Based IGF-1 KIRA Assay
A KIRA for measuring the activation of the human type 1 IGF-1 receptor was performed using human MCF-7 cells (as described above). Cells were grown overnight in 96-well plates with medium (50:50 F12/DMEM, Gibco). Supernatants were decanted, and stimulation media (50:50 F12/DMEM with 25 mM HEPES and 2.0% BSA) containing either controls (2 nM IGF-1 preincubated with IGF Bp1 or Bp3) or experimental samples (Peptides preincubated for 30 min. with 2 nm IGF-1) were added. After 15-minute stimulation the cells were lysed, and added to the polyclonal anti-IGF-R (3B7 Santa Cruz Biotech) coated overnight on immunosorbant plates. The detection ELISA was performed as above.

IGFBP-1 = test: Peptide inhibition of phage IGF-1 binding to IGFBP-1; design: species or system human; settings: synthetic peptide preincubated 45 minutes with IGF-1 displaying phage; plates coated with IGF binding protein; read-out: BP1 Comp
Method: as §1, §2

[2] = test system: human insulin receptor (hIR); test: Cell-based insulin KIRA assay (kinase receptor activation); settings: Chinese hamster ovary cells transfected with hIR; peptides incubated with 25 nm IGF-1 for 1 hr; 15 min stimulation
Method: Cell-Based Insulin KIRA Assay of IGF-1 Binding Peptide Activity
A kinase receptor activation assay (KIRA) (Sadick et al., J. Pharm. Biomed. Anal., 19, 883-891 (1999)) for measuring phosphorylation of human insulin receptor (hIR) was developed using Chinese hamster ovary cells transfected with the hIR. (TRY-1R 5.3) Cells were grown overnight in 96-well plates with medium (PS/20) at 37° C. Supernatants were decanted and stimulation media (PS/20 and 0.5% BSA) containing either peptide samples (peptides incubated with 25 nm IGF-1 for 1 hr), experimental controls (IGF Bp1 incubated with IGF-1 for 1 hr), and 25 nm rhIGF-1 standards were added. After fifteen minute stimulation at 37° C., stimulation solutions were removed and cells were lysed with a buffer containing 50 mM HEPES, 150 mM NaCl, 0.5% Triton-X-100™ octylphenyl ethylene oxide condensate, 1 mM AEBSF, aprotinin and 0.05 mM leupeptin, and 2 mM sodium orthovanadate. Lysates were frozen at −70° C. for ELISA. Immunosorbant plates were coated with 2 μg/ml insulin receptor Ab-2 (clone 83-7) in PBS at pH 7.0 overnight at 4° C. The plate was blocked and washed as above. Cell lysates containing transfected hIR were incubated on the capture ELISA plates for 2 hrs. After removing unbound receptor by washing, biotinylated anti-phosphotyrosine 4G10 (Upstate Biologicals Inc.) was added to detect activated receptor. After 2 hrs, the plates were developed with streptavidin conjugated to HRP and TMB substrate as above.

[3] = test system: IGF receptors on MCF-7 cells; test: Displacement of 125I IGF-1 on MCF-7 cells; design: species or system human; settings: peptides preincubated with 2 nm 125I IGF-1 for 40 minutes at 37° C; added to cells for 30 minutes; read-out: MCF-7 binding
Method: Displacement of IGF-1 on MCF-7 Cells
MCF7 (ATCC-HTB, Bethesda, Md.), a breast carcinoma cell line that expresses IGF receptors as well as insulin receptors (Grupe et al., J. Biol. Chem., 270, 22085-22088 (1995)) was used to detect inhibition of ^125I IGF-1 to receptors on cells by synthesized peptides. Cell were passaged weekly in media containing a 50/50 mix of high-glucose DMEM/Ham's F12, with 10% fetal bovine serum and 10 mM HEPES pH 7.2. Cells were plated and grown overnight maintained at 37° C. and 5% CO2. For IGF-1 iodination, 50 μg of IGF-1 was diluted into 200 μL of PBS and added to a tube coated with 100 μg of IODOGEN® 1,3,4,6-tetrachloro-3α-6β-diphenylglycouril) (Pierce Chemical Co.), incubated with 1 mCi of ^125I-NaI (10 μL) at room temperature for 10-15 minutes. Synthesized peptides and binding protein controls were preincubated with 2 nm ^125I IGF-1 for 40 minutes at 37° C. The samples were added to cells for 30 minutes. The cells were washed with media and lysed with 1N NaOH.

Structure (SMILES) | pIC50 (IGFBP3) | pIC50 [1] | pIC50 (IGFBP-1) | pIC50 [2] | pIC50 [3]
CSCC[C@H](NC(=O)[C@@H]1CSSC[C@H](NC(=O)[C@H](CC(=O)O)NC(=O)[C@@H](N)CCSC)C(=O)N[C@@H](CC(C)C)C(=O)N[C@@H](C)C(=O)N[C@@H](CO)C(=O)N[C@@H](C(C)C)C(=O)N[C@@H](CCC(=O)O)C(=O)N[C@@H](C)C(=O)N[C@@H](CC(C)C)C(=O)N[C@@H](CCCCN)C(=O)N[C@@H](Cc2c[nH]c3ccccc23)C(=O)N1)C(=O)N[C@@H](Cc1ccc(O)cc1)C(=O)NCC(=O)O [Peptide F1-2, MDCLASVEALKWCMYG] (H-MDCLASVEALKWCMYG-OH; disulfide 3-13 (inferred); N-terminus and C-terminus assumed) | 5.04 | 4.70 | 4.81 | 4.49 | 4.82
CSCC[C@H](NC(=O)[C@@H]1CSSC[C@H](NC(=O)[C@H](CCC(=O)O)NC(=O)[C@@H](N)Cc2ccccc2)C(=O)N[C@@H](CC(C)C)C(=O)N[C@@H]([C@@H](C)O)C(=O)N[C@@H](CO)C(=O)N[C@@H](C(C)C)C(=O)N[C@@H](CCC(=O)O)C(=O)N[C@@H](C)C(=O)N[C@@H](CC(C)C)C(=O)N[C@@H](CCCNC(=N)N)C(=O)NCC(=O)N1)C(=O)N[C@@H](Cc1ccc(O)cc1)C(=O)NCC(N)=O [Peptide F1-3, FECLTSVEALRGCMYG] (H-FECLTSVEALRGCMYG-NH2; disulfide 3-13; N-terminus and C-terminus assumed) | 4.89 | 3.99 | 4.93 | 4.18 | 4.34
CSCC[C@H](NC(=O)[C@@H]1CSSC[C@H](NC(=O)[C@H](CC(N)=O)NC(=O)[C@@H](N)CCCNC(=N)N)C(=O)N[C@@H](Cc2ccccc2)C(=O)N[C@@H](CCC(=O)O)C(=O)N[C@@H](CO)C(=O)N[C@@H](C(C)C)C(=O)N[C@@H](C)C(=O)N[C@@H](C)C(=O)N[C@@H](CC(C)C)C(=O)N[C@@H](CCCNC(=N)N)C(=O)N[C@@H](CCCNC(=N)N)C(=O)N1)C(=O)N[C@@H](Cc1ccc(O)cc1)C(=O)NCC(=O)O [Peptide F1-1, RNCFESVAALRRCMYG] (H-RNCFESVAALRRCMYG-OH; disulfide 3-13) | 5.53 | 4.07 | 5.85 | 5.26 | 5.29
